pIC50: −log10 of the molar value.

What is called pIC50 is the negative decadic logarithm of the IC50, by convention in mol/L.

For the assay, the target named is T1, human PAR4 (Homo sapiens, UniProt Q96RI0).
T1 construct: expressed in transfected cells; host or cells: HEK293 PAR4 Clone 1.2A (BMS Arctic ID 383940)
T1 sequence (Q96RI0 18-385): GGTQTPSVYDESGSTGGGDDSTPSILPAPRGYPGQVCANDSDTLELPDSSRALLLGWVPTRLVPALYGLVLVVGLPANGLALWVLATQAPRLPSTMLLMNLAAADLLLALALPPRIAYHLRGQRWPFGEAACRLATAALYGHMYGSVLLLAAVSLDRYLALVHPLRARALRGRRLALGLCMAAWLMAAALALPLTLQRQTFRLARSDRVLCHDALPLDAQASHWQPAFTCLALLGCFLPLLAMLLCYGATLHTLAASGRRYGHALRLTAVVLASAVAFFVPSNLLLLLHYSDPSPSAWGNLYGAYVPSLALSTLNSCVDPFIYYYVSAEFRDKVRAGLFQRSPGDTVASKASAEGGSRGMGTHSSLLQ
As to the kind of experiment: PAR4 FLIPR assay: antagonism of agonist-peptide-induced calcium mobilization in PAR4-expressing HEK293 cells. In kind it is cell-based. As to conditions: H-Ala-Phe(4-F)-[…]NH2-induced intracellular calcium mobilization, 11-point curves. Background: A change in cytosolic calcium serves as a functional read-out for many receptors and channels.
`COCCOc1ccc2nc(-c3cc(C)cc4nc(OC)cnc34)sc2c1` [Example 77, 2-(2-methoxy-7-methylquinoxalin-5-yl)-6-(2-methoxyethoxy)benzo[d]thiazole]: the pIC50 is 6.89.

Turning to `COCCOc1cccc2nc(-c3cc(C)cc4nc(OC)cnc34)sc12` [Example 78, 2-(2-methoxy-7-methylquinoxalin-5-yl)-7-(2-methoxyethoxy)benzo[d]thiazole], the negative-log IC50 (pIC50) was 7.41. The result for `COC(=O)Nc1cccc2nc(-c3cc(C)cc4nc(OC(F)F)cnc34)sc12` [Example 80, Methyl 2-(2-(difluoromethoxy)-7-methylquinoxalin-5-yl)benzo[d]thiazol-7-ylcarbamate] reads 7.68; that for `Cc1cc(-c2nc3c(C)cc(OCCNS(=O)(=O)c4ccc(F)cc4)cc3s2)c2ncc(OC(F)F)nc2c1` [Example 81, N-(2-(2-(2-(difluoromethoxy)-7-methylquinoxalin-5-yl)-4-methylbenzo[d]thiazol-6-yloxy)ethyl)-4-fluorobenzenesulfonamide], 8.82; that for `Cc1cc(-c2nc3cccc(OCC(=O)Nc4ccccc4)c3s2)c2ncc(OC(F)F)nc2c1` [Example 82, 2-(2-(2-(difluoromethoxy)-7-methylquinoxalin-5-yl)benzo[d]thiazol-7-yloxy)-N-phenylacetamide], 6.55. Consider `Cc1cc(-c2nc3c(C)cc(OCCNS(=O)(=O)c4ccc(C(F)(F)F)cc4)cc3s2)c2ncc(OC(F)F)nc2c1` [Example 83, N-(2-(2-(2-(difluoromethoxy)-7-methylquinoxalin-5-yl)-4-methylbenzo[d]thiazol-6-yloxy)ethyl)-4-(trifluoromethyl)benzenesulfonamide], for which the negative logarithm of the IC50 (pIC50) was 7.96. Take `Cc1cc(-c2nc3c(C)cc(OCCNS(=O)(=O)c4ccc(F)cc4F)cc3s2)c2ncc(OC(F)F)nc2c1` [Example 84, N-(2-(2-(2-(difluoromethoxy)-7-methylquinoxalin-5-yl)-4-methylbenzo[d]thiazol-6-yloxy)ethyl)-2,4-difluorobenzenesulfonamide]: the negative logarithm of the IC50 (pIC50) is 8.60.

Consider `Cc1cc(-c2nc3c(C)cc(OCCNS(=O)(=O)c4ccc(F)c(F)c4)cc3s2)c2ncc(OC(F)F)nc2c1` [Example 85, N-(2-(2-(2-(difluoromethoxy)-7-methylquinoxalin-5-yl)-4-methylbenzo[d]thiazol-6-yloxy)ethyl)-3,4-difluorobenzenesulfonamide], for which the negative logarithm of the IC50 (pIC50) is 8.07. The result for `Cc1cc(-c2nc3c(C)cc(OCCNS(=O)(=O)c4ccc(Cl)cc4)cc3s2)c2ncc(OC(F)F)nc2c1` [Example 86, 4-chloro N-(2-(2-(2-(difluoromethoxy)-7-methylquinoxalin-5-yl)-4-methylbenzo[d]thiazol-6-yloxy)ethyl)benzenesulfonamide] reads 8.14; that for `COc1cnc2c(-c3nc4c(C)cc(OCCNS(=O)(=O)c5ccc(C)cc5)cc4s3)cc(C)cc2n1` [Example 87, N-(2-(2-(2-methoxy-7-methylquinoxalin-5-yl)-4-methylbenzo[d]thiazol-6-yloxy)ethyl)-4-methylbenzenesulfonamide], 8.70. The result for `COc1cnc2c(-c3nc4c(C(F)(F)F)cc(OCCNS(=O)(=O)c5ccc(F)cc5)cc4s3)cc(C)cc2n1` [Example 90, 4-fluoro N-(2-(2-(2-methoxy-7-methylquinoxalin-5-yl)-4-(trifluoromethyl)benzo[d]thiazol-6-yloxy)ethyl)benzenesulfonamide] reads 7.08; that for `Cc1cc(-c2nc3c(C)cc(OCCNS(=O)(=O)c4ccc(F)cc4)cc3s2)c2ncc(C3CC3)nc2c1` [Example 91, N-(2-(2-(2-cyclopropyl-7-methylquinoxalin-5-yl)-4-methylbenzo[d]thiazol-6-yloxy)ethyl)-4-fluorobenzenesulfonamide], 7.21.

As to `COCc1cnc2c(-c3nc4c(C)cc(OCCNC(=O)OCc5ccccc5)cc4s3)cc(C)cc2n1` [Example 92, Benzyl 2-(2-(2-(methoxymethyl)-7-methylquinoxalin-5-yl)-4-methylbenzo[d]thiazol-6-yloxy)ethylcarbamate], the negative logarithm of the IC50 (pIC50) is 8.70. With `COCc1cnc2c(-c3nc4c(Cl)cc(OC)cc4s3)cc(C)cc2n1` [Example 93, 4-chloro-6-methoxy-2-(2-(methoxymethyl)-7-methylquinoxalin-5-yl)benzo[d]thiazole], the pIC50 is 9.52. The result for `COCc1cnc2c(-c3cc4cc(OC)ccc4o3)cc(C)cc2n1` [Example 94, 5-(5-methoxybenzofuran-2-yl)-2-(methoxymethyl)-7-methylquinoxaline] reads 8.85. On to `COCc1cnc2c(-c3nc4c(C)cc(OCCNS(=O)(=O)c5ccccc5)cc4s3)cc(C)cc2n1` [Example 95, N-(2-((2-(2-(methoxymethyl)-7-methylquinoxalin-5-yl)-4-methylbenzo[d]thiazol-6-yl)oxy)ethyl)benzenesulfonamide], for which the negative logarithm of the IC50 (pIC50) is 9.10. The result for `COCc1cnc2c(-c3nc4c(C)cc(OCCNS(=O)(=O)c5ccccc5F)cc4s3)cc(C)cc2n1` [Example 96, 2-fluoro N-(2-(2-(2-(methoxymethyl)-7-methylquinoxalin-5-yl)-4-methylbenzo[d]thiazol-6-yloxy)ethyl)benzenesulfonamide] reads 8.96. The result for `COCc1cnc2c(-c3nc4c(C)cc(OCCNS(=O)(=O)c5cccc(F)c5)cc4s3)cc(C)cc2n1` [Example 97, 3-fluoro N-(2-(2-(2-(methoxymethyl)-7-methylquinoxalin-5-yl)-4-methylbenzo[d]thiazol-6-yloxy)ethyl)benzenesulfonamide] reads 8.77. The result for `COCc1cnc2c(-c3nc4c(Cl)cc(OCCNS(C)(=O)=O)cc4s3)cc(C)cc2n1` [Example 98, N-(2-(4-chloro-2-(2-(methoxymethyl)-7-methylquinoxalin-5-yl)benzo[d]thiazol-6-yloxy)ethyl)methanesulfonamide] reads 9.52; that for `COCc1cnc2c(-c3nc4c(Cl)cc(OCCNS(=O)(=O)c5ccccc5)cc4s3)cc(C)cc2n1` [Example 99, N-(2-(4-chloro-2-(2-(methoxymethyl)-7-methylquinoxalin-5-yl)benzo[d]thiazol-6-yloxy)ethyl)benzenesulfonamide], 9.22; that for `COCc1cnc2c(-c3nc4c(Cl)cc(OCCNS(=O)(=O)c5ccccc5F)cc4s3)cc(C)cc2n1` [Example 100, N-(2-(4-chloro-2-(2-(methoxymethyl)-7-methylquinoxalin-5-yl)benzo[d]thiazol-6-yloxy)ethyl)-2-fluorobenzenesulfonamide], 9.30.

On to `COCc1cnc2c(-c3nc4c(Cl)cc(OCCNS(=O)(=O)c5ccc(F)cc5)cc4s3)cc(C)cc2n1` [Example 101, N-(2-(4-chloro-2-(2-(methoxymethyl)-7-methylquinoxalin-5-yl)benzo[d]thiazol-6-yloxy)ethyl)-4-fluorobenzenesulfonamide], for which the negative-log IC50 (pIC50) is 9.70.

On to `COCc1cnc2c(-c3nc4c(Cl)cc(OCCNS(=O)(=O)c5cccc(F)c5)cc4s3)cc(C)cc2n1` [Example 102, N-(2-(4-chloro-2-(2-(methoxymethyl)-7-methylquinoxalin-5-yl)benzo[d]thiazol-6-yloxy)ethyl)-3-fluorobenzenesulfonamide], for which the pIC50 is 9.05. The result for `COCc1cnc2c(-c3nc4c(C#N)cc(OC)cc4s3)cc(C)cc2n1` [Example 103, 6-methoxy-2-(2-(methoxymethyl)-7-methylquinoxalin-5-yl)benzo[d]thiazole-4-carbonitrile] reads 8.60.

For `COCc1cnc2c(-c3nc4c(C5CC5)cc(OCCNS(=O)(=O)c5ccccc5)cc4s3)cc(C)cc2n1` [Example 104, N-(2-(4-cyclopropyl-2-(2-(methoxymethyl)-7-methylquinoxalin-5-yl)benzo[d]thiazol-6-yloxy)ethyl)benzenesulfonamide], the negative logarithm of the IC50 (pIC50) was 8.77. The result for `COCc1cnc2c(-c3nc4c(C5CC5)cc(OCCNS(=O)(=O)c5ccc(F)cc5)cc4s3)cc(C)cc2n1` [Example 105, N-(2-(4-cyclopropyl-2-(2-(methoxymethyl)-7-methylquinoxalin-5-yl)benzo[d]thiazol-6-yloxy)ethyl)-4-fluorobenzenesulfonamide] reads 8.09. The result for `COCc1cnc2c(-c3nc4ccc(OCCNS(=O)(=O)c5ccccc5)cc4s3)cc(C)cc2n1` [Example 106, N-(2-(2-(2-(methoxymethyl)-7-methylquinoxalin-5-yl)benzo[d]thiazol-6-yloxy)ethyl)benzenesulfonamide] reads 8.80; that for `COCc1cnc2c(-c3nc4ccc(OCCNS(=O)(=O)c5ccc(F)cc5)cc4s3)cc(C)cc2n1` [Example 107, 4-fluoro N-(2-(2-(2-(methoxymethyl)-7-methylquinoxalin-5-yl)benzo[d]thiazol-6-yloxy)ethyl)benzenesulfonamide], 8.55.

As for `Cc1cc(-c2nc3c(C)cc(OCCNS(=O)(=O)c4ccc(F)cc4)cc3s2)c2ncc(C(C)F)nc2c1` (stereo not drawn) [Example 108, 4-fluoro N-(2-(2-(2-(1 fluoroethyl)-7-methylquinoxalin-5-yl)-4-methylbenzo[d]thiazol-6-yloxy)ethyl)benzenesulfonamide], the negative-log IC50 (pIC50) is 5.96. The result for `COCc1cnc2c(-c3nc4c(C#N)cc(OCCNS(=O)(=O)c5ccc(F)cc5)cc4s3)cc(C)cc2n1` [Example 109, N-(2-(4-cyano-2-(2-(methoxymethyl)-7-methylquinoxalin-5-yl)benzo[d]thiazol-6-yloxy)ethyl)-4-fluorobenzenesulfonamide] reads 8.08.

Values taken from patent US12060347B2 (BRISTOL-MYERS SQUIBB COMPANY, priority 2016, dated 2024).
